Converted amounts (≈) assume the structure as drawn.
Legend:
Type in all cases: functional
KB = experiment: Cytotoxicity against human KB cells; settings: read-out: ED50 (the source's name)
P388 [1] = experiment: Cytotoxicity against mouse P388 cells; settings: read-out: ED50 (the source's name)
P388 [2] = experiment: Cytotoxicity against mouse P388 cells in in vivo based assay at 1.56 mg/kg relative to control
P388 [3] = experiment: Cytotoxicity against mouse P388 cells in in vivo based assay at 0.78 mg/kg relative to control

CC[C@@]1(O)C(=O)OCc2c1cc1n(c2=O)Cc2cc3c(OC)cccc3nc2-1
EC50 (KB): 0.17 µg/mL (≈ 0.449 µM)
EC50 (P388 [1]): 0.53 µg/mL (≈ 1.4 µM)

CC[C@@]1(O)C(=O)OCc2c1cc1n(c2=O)Cc2cc3ccccc3nc2-1 [CAMPTOTHECIN]
T/C (P388 [2]): 181%
T/C (P388 [3]): 175%

— ChEMBL document CHEMBL1158653, “Plant anticancer agents X. Isolation of camptothecin and 9-methoxycamptothecin from Ervatamia heyneana” (1979)
